# Molecular target: T1, human CRTH2 (Homo sapiens, UniProt Q9Y5Y4)
# T1 construct: expressed in transfected cells
# T1 sequence (Q9Y5Y4 1-395): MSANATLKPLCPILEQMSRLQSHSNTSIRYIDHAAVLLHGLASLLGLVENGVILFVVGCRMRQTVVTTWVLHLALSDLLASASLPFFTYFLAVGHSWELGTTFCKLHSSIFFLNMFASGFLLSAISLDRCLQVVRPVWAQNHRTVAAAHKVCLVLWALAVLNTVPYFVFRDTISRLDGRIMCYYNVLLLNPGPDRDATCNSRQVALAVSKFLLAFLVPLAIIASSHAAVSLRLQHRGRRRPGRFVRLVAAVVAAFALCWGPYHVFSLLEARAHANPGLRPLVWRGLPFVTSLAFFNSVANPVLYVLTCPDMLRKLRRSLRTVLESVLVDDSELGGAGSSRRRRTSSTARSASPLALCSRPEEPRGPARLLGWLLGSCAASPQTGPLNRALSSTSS
# Assay: [35S]GTPγS binding assay (SPA) on membranes from CHO-K1 cells stably expressing human CRTH2, stimulated with 60 nM DHK-PGD2
# Type: biochemical
# Details: membranes of CHO-K1 cells expressing human CRTH2; 60 nM DHK-PGD2; Table 1; read-out: CRTH2 hGTPγS IC50
# Protocol: [^35S]GTPγS Binding Assay
# SPA [^35S]G-TPγS binding was performed on membranes from CHO-K1 cells stably expressing human CRTH2. To a white, clear-bottomed 384-well plate, 4 μg membrane protein was incubated in the binding buffer (20 mM HEPES, pH 7.4, 10 mM MgCl2, 300 mM NaCl, 0.2% BSA) with 60 nM DHK-PGD2, 500 pM [^35S]GTPγS, 10 μM GDP, and 100 μg wheat germ agglutinin-coupled SPA beads (GE Healthcare) with and without increasing concentrations of compounds. The final assay volume was 40 μL and contained 1% DMSO. Samples were incubated for 2 h at ambient temperature. Plates were centrifuged 5 min at 1500 rpm. Plates were read after an additional 4 h using the Trilux 1450 Microbeta (PerkinElmer) with a 30 sec/well reading time.
row,IC50,Structure (SMILES)
1,3.4 nM,"CN(Cc1ccc(OCC(=O)O)c(-c2cc(F)cc(F)c2)c1)S(=O)(=O)c1ccc(Cl)c(Cl)c1 [Example 51, 2-(3,5-difluorophenyl)-4-((3,4-dichloro-N-methylphenylsulfonamido)methyl)phenoxyacetic acid]"

# Same assay, conditions: potency class symbols; Table 2; read-out: CRTH2 hGTPγS IC50
row,Structure (SMILES),IC50
1,"CN(Cc1cc(-c2cccc(C#N)c2)c(OCC(=O)O)cc1F)S(=O)(=O)c1ccccc1 [Example 98, 2-(3-cyanophenyl)-4-((N-methylphenylsulfonamido)methyl)-5-fluorophenoxyacetic acid]",< 100 nM
2,"Cc1ccc(S(=O)(=O)N(C)Cc2ccc(OCC(=O)O)c(-c3cccc(C#N)c3)c2)cc1F [Example 92, 2-(3-cyanophenyl)-4-((3-fluoro-4-methyl-N-methylphenylsulfonamido)methyl)phenoxyacetic acid]",< 100 nM
3,"CN(Cc1ccc(OCC(=O)O)c(-c2cc(F)cc(Cl)c2)c1)S(=O)(=O)c1ccccc1 [Example 150, 2-(3-chloro-5-fluorophenyl)-4-((-N-methylphenylsulfonamido)methyl)phenoxyacetic acid]",100 to 1000 nM
4,"CN(Cc1ccc(OCC(=O)O)c(-c2cccc(C#N)c2)c1)S(=O)(=O)c1ccc(F)cc1 [Example 5, 2-(2-(3-cyanophenyl)-4-((4-fluoro-N-methylphenylsulfonamido)methyl)phenoxy)acetic acid]",< 100 nM
5,"CN(Cc1ccc(OCC(=O)O)c(-c2cccc(C#N)c2)c1)S(=O)(=O)c1cccc(F)c1 [Example 89, 2-(3-cyanophenyl)-4-((3-fluoro-N-methylphenylsulfonamido)methyl)phenoxyacetic acid]",< 100 nM
6,"CN(Cc1cc(F)c(OCC(=O)O)c(-c2cccc(C(F)(F)F)c2)c1)S(=O)(=O)c1ccc(F)cc1 [Example 161, 2-(3-trifluoromethylphenyl)-4-((4-fluoro-N-methylphenylsulfonamido)methyl)-6-fluorophenoxyacetic acid]",1000 to 10000 nM
7,"CN(Cc1ccc(OCC(=O)O)c(-c2cccc(F)c2)c1)S(=O)(=O)c1ccc(F)cc1 [Example 130, 2-(3-fluorophenyl)-4-((4-fluoro-N-methylphenylsulfonamido)methyl)phenoxyacetic acid]",100 to 1000 nM
8,"CN(Cc1ccc(OCC(=O)O)c(-c2ccc(C#N)s2)c1)S(=O)(=O)c1ccc(F)cc1 [Example 188, 2-(2-cyanothiophen-5-yl)-4-((4-fluoro-N-methylphenylsulfonamido)methyl)phenoxyacetic acid]",< 100 nM
9,"CN(Cc1ccc(OCC(=O)O)c(-c2cncnc2)c1)S(=O)(=O)c1ccccc1 [Example 172, 2-(pyrimidin-5-yl)-4-((N-methylphenylsulfonamido)methyl)phenoxyacetic acid]",1000 to 10000 nM
10,"Cc1noc(C)c1-c1cc(CN(C)S(=O)(=O)c2ccc(F)cc2)ccc1OCC(=O)O [Example 171, 2-(3,5-dimethylisoxazol-4-yl)-4-((4-fluoro-N-methylphenylsulfonamido)methyl)phenoxyacetic acid]",1000 to 10000 nM
11,"CN(Cc1ccc(OCC(=O)O)c(-c2cnccn2)c1)S(=O)(=O)c1ccc(F)cc1 [Example 155, 2-(pyrazinyl)-4-((4-fluoro-N-methylphenylsulfonamido)methyl)phenoxyacetic acid]",1000 to 10000 nM
12,"CN(Cc1ccc(OCC(=O)O)c(-c2cncc(C#N)c2)c1)S(=O)(=O)c1ccc(F)cc1 [Example 108, 2-(3-cyano-5-pyridinyl)-4-((4-fluoro-N-methylphenylsulfonamido)methyl)phenoxyacetic acid]",100 to 1000 nM
13,"CN(Cc1ccc(OCC(=O)O)c(-c2ccccc2Cl)c1)S(=O)(=O)c1ccc(F)cc1 [Example 177, 2-(2-chlorophenyl)-4-((4-fluoro-N-methylphenylsulfonamido)methyl)phenoxyacetic acid]",1000 to 10000 nM
14,"CN(Cc1cc(-c2cccc(C#N)c2)c(OCC(=O)O)cc1F)S(=O)(=O)c1ccc(F)cc1 [Example 77, 2-(3-cyanophenyl)-4-((4-fluoro-N-methylphenylsulfonamido)methyl)-5-fluorophenoxyacetic acid]",< 100 nM
15,"CN(Cc1ccc(OCC(=O)O)c(-c2cc(F)cc(F)c2)c1)S(=O)(=O)c1ccc(Cl)c(Cl)c1 [Example 51, 2-(3,5-difluorophenyl)-4-((3,4-dichloro-N-methylphenylsulfonamido)methyl)phenoxyacetic acid]",< 100 nM
16,"CN(Cc1cc(-c2cccc(C#N)c2)c(OCC(=O)O)cc1Cl)S(=O)(=O)c1cccc(F)c1 [Example 53, 2-(3-cyanophenyl)-4-((3-fluoro-N-methylphenylsulfonamido)methyl)-5-chlorophenoxyacetic acid]",< 100 nM
17,"COc1cc(F)cc(-c2cc(CN(C)S(=O)(=O)c3ccc(F)cc3)ccc2OCC(=O)O)c1 [Example 96, 2-(3-methoxy-5-fluorophenyl)-4-((4-fluoro-N-methylphenylsulfonamido)methyl)phenoxyacetic acid]",< 100 nM
18,"CN(Cc1cc(-c2cc(F)cc(C#N)c2)c(OCC(=O)O)cc1F)S(=O)(=O)c1ccc(Cl)c(Cl)c1 [Example 211, 2-(3-cyano-5-fluoro-phenyl)-4-((3,4-dichloro-N-methylphenylsulfonamido)methyl)-5-fluorophenoxyacetic acid]",< 100 nM
19,"CN(C)S(=O)(=O)c1cccc(-c2cc(CN(C)S(=O)(=O)c3ccc(F)cc3)ccc2OCC(=O)O)c1 [Example 85, 2-(3-N,N-dimethylsulfamoylphenyl)-4-((4-fluoro-N-methylphenylsulfonamido)methyl)phenoxyacetic acid]",< 100 nM

# Now from value to compound:
row,IC50,Structure (SMILES)
1,1000 to 10000 nM,"Cc1noc(C)c1S(=O)(=O)N(C)Cc1ccc(OCC(=O)O)c(-c2cccc(C(F)(F)F)c2)c1 [Example 160, 2-(3-trifluoromethylphenyl)-4-((N,3,5-trimethylisoxazole-4-sulfonamido)methyl)phenoxyacetic acid]"
2,1000 to 10000 nM,"CN(Cc1ccc(OCC(=O)O)c(-c2cccc(Cl)c2)c1)S(=O)(=O)c1ccc(F)cc1 [Example 163, 2-(3-chlorophenyl)-4-((4-fluoro-N-methylphenylsulfonamido)methyl)phenoxyacetic acid]"
3,100 to 1000 nM,"CCN(Cc1ccc(OCC(=O)O)c(-c2cccc(C(F)(F)F)c2)c1)S(=O)(=O)c1ccc(F)c(F)c1 [Example 113, 2-(3-trifluoromethylphenyl)-4-((3,4-difluoro-N-ethylphenylsulfonamido)methyl)phenoxyacetic acid]"
4,< 100 nM,"CN(Cc1ccc(OCC(=O)O)c(-c2cccc(C(F)(F)F)c2)c1)S(=O)(=O)c1ccc(F)cc1 [Example 95, 2-(3-trifluoromethylphenyl)-4-((4-fluoro-N-methylphenylsulfonamido)methyl)phenoxyacetic acid]"
5,100 to 1000 nM,"CN(Cc1ccc(OCC(=O)O)c(-c2cccc(C(F)(F)F)c2)c1)S(=O)(=O)c1cccc(F)c1 [Example 126, 2-(3-trifluoromethylphenyl)-4-((3-fluoro-N-methylphenylsulfonamido)methyl)phenoxyacetic acid]"
6,100 to 1000 nM,"CN(Cc1ccc(OCC(=O)O)c(-c2cccc(C(F)(F)F)c2)c1)S(=O)(=O)c1cccc2ccccc12 [Example 145, 2-(3-trifluoromethylphenyl)-4-((N-methylnaphthalene-1-sulfonamido)methyl)phenoxyacetic acid]"
7,1000 to 10000 nM,"CN(Cc1ccc(OCC(=O)O)c(-c2cccc(C(F)(F)F)c2)c1)S(=O)(=O)c1ccccc1Cl [Example 170, 2-(3-trifluoromethylphenyl)-4-((2-chloro-N-methylphenylsulfonamido)methyl)phenoxyacetic acid]"
8,100 to 1000 nM,"CN(Cc1ccc(OCC(=O)O)c(-c2cccc(C(F)(F)F)c2)c1)S(=O)(=O)c1cccnc1 [Example 149, 2-(3-trifluoromethylphenyl)-4-((N-methylpyridine-3-sulfonamido)methyl)phenoxyacetic acid]"
